# Experimental data from publication PMC4434572, “Identification of novel drugs to target dormant micrometastases” (BMC Cancer, 2015).
# Where “and” joins values, the source holds several entries; their conditions need not be identical. Identical values can stand only once. Like-named read-outs stand apart in the source and are kept apart here.
# Assays:
# [1] = test system: cancer cells on SISgel or plastic; assay: Activity of leads and analogs on cancer cells grown on plastic vs SISgel (cell line not stated); assay type: cell-based; details: for Hit: YES/NO; for SR: ratio IC50-p/IC50-S
# In short: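 Cells on SISgel (30,000/well, 48 h attachment) or plastic (3,000/well, 24 h) were exposed to compound (diluted to 100 μM) for 48 h in high-glucose DMEM with 10 % FCS. Cell number quantified by CFDA-AM esterase assay; results given as plastic:SISgel cell-count ratio, hits confirmed in triplicate, curves fitted sigmoidally.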
# MDA-MB-231 (breast) = assay: Proliferation EC50 on SISgel vs monolayer; assay type: cell-based; details: n = 6-8
# Capan-1 (pancreatic) = assay: Proliferation EC50 on SISgel vs monolayer; assay type: cell-based; details: n = 6-8
# Excerpt: The libraries were obtained from the NCI (Diversity Library I) comprised of 2,918 compounds and a 10,000 compound diversity library from ChemBridge, Inc. (DiverSet-EXP). The NCI library is no longer available in the form used here, but how it was constructed is described (http://dtp.nci.nih.gov/branches/dscb/diversity_explanation.html). The ChemBridge library is a subset (Set Code NM1024) of the full 50,000 compound library (http://www.chembridge.com/screening_libraries/diversity_libraries/). Compounds were diluted to 100 μM before use. SISgel was prepared as described previously from powdered porcine small intestine submucosa obtained from Cook Biotech (W. Lafayette, IN). It is a natural product that is used extensively in tissue engineering as a bioscaffold. J82 bladder cancer cells and other cell lines were obtained from the ATCC (Bethesda, MD). The basic principle is that cells grown on any ECM are, in general, expected to show higher resistance to anticancer compounds than when grown on plastic. Therefore, compounds that show a higher activity toward cancer cells on a normal ECM than on a plastic surface would be candidates to target suppressed, micrometastatic cells. Efficacy in vitro was assessed by plating 30,000 cells in 50 μL of high glucose DMEM with penicillin-streptomycin and 10 % fetal calf serum on SISgel in a 96-well plate containing 50 μL of gelled SISgel per well. Cells were allowed to attach and assume the SISgel phenotype for 48 h. A matching plate without SISgel was prepared 24 h later by pipetting 3,000 cells in 100 μL of high glucose DMEM with penicillin-streptomycin and 10 % fetal calf serum into each well of 96 well plate. The cells were allowed to attach and grow for 24 h. These numbers of cells gave approximately equal replication rates at the time drug was added for cells grown on the plastic surface or SISgel as determined by the fraction of S-phase cells identified by flow cytometry. The cells were exposed to drug in fresh medium for 48 h, at which time the cell number was determined using the CFDA-AM cellular esterase proliferation assay (cat. #C1354, Life Technologies). For screening the results are reported as the ratio of cell count of cells on the plastic surface to the cell count on SISgel. An initial difference of 1.5 fold identified potential hits. All potential hits were confirmed in triplicate. Those compounds that replicated were confirmed by a full dose–response study yielding an EC50 using five wells per drug concentration. Data were analyzed using nonlinear regression to a sigmoid curve with Prism 4 (GraphPad Software, Inc., LaJolla, CA). Potential hits that were confirmed by dose–response using J82 were also tested with MDA-MB-435 breast cancer, PC-3 metastatic prostate cancer, Capan1 pancreatic cancer and the J82 bladder cancer cell lines.
# MDA-MB-435-GFP cells = assay: Flank xenograft model of ECM-suppressed cells co-injected with SISgel; assay type: in vivo, nu/nu mice; details: 45 mg/kg i.p. three times weekly for 3 weeks; 4 weeks after implantation
# Procedure: The efficacy of DT320 was assessed using a flank xenograft model of ECM-suppressed cancer cells that we developed, as well as an orthotopic model of “triple-negative” breast cancer. All animal protocols were reviewed and approved by the OUHSC Institutional Animal Care and Use Committee according to criteria established by the NIH Office of Laboratory Animal Welfare, and animals were housed 5 per cage with enrichment (tubes) and wood chips in the AALAC-accredited OUHSC Animal Facility with a 12 h light/dark cycle. Animals had access to water and food ad libatum. Animals were monitored daily by trained facility personnel. In the flank model, GFP-labeled cells were co-injected with SISgel, which produces a suppressed, normalized phenotype that persists after the SISgel is resorbed, but which can re-emerge into active tumor growth after 30–60 days. Animals were all female nu/nu mice (NCI National Laboratory Frederick/Charles River animal production program). An optimized number of 5 × 10^5 GFP-labeled MDA-MB-435 cells in 100 μL DMEM medium, without additives, were mixed with 100 μL of SISgel and were kept on ice until injection to prevent polymerization of the SISgel. […] The cells injected into the flanks remained as a non-growing spot, as assessed by fluorometry of the spots and the lack of mitoses seen in tissue sections, for about 3–5 weeks before some began resuming malignant growth. […]
# [2] = cells on SISgel, read-out: IC50-S
# [3] = cells on plastic, read-out: IC50-p
structure (smiles),measurement,setting,value
"O=S(=O)([O-])c1ccc2c(N=Nc3cccc4ccccc34)c(O)c(S(=O)(=O)[O-])cc2c1.[Na+].[Na+] [DT310, 4-(1-naphthalenylhydrazinylidene) -3-oxonaphthalene-2,7-disulfonic acid]",Hit,[1],YES
same,IC50,[1]; [2],36 µM
same,IC50,[1]; [3],87 µM
same,SR,[1],2.4
"O=S(=O)([O-])c1cc(O)c2c(O)c(N=Nc3cccc4ccccc34)c(S(=O)(=O)[O-])cc2c1.[Na+].[Na+] [DT320, 4,5-Dihydroxy-3-(1-naphthalenylazo)-2,7-naphthalenedisulfonic acid disodium salt]",EC50,"MDA-MB-231 (breast); MDA-MB-231 monolayer, read-out: EC50 Monolayer",78.1 ± 7.1 µM
same,EC50,"MDA-MB-231 (breast); MDA-MB-231 on SISgel, read-out: EC50 SISgel",8.7 ± 1.1 µM
same,EC50,"Capan-1 (pancreatic); Capan-1 monolayer, read-out: EC50 Monolayer",80.1 ± 10.2 µM
same,EC50,"Capan-1 (pancreatic); Capan-1 on SISgel, read-out: EC50 SISgel",22.9 ± 4.8 µM
same,flank xenografts in which ECM-suppressed cells were extirpated / spots disappeared,MDA-MB-435-GFP cells,six of eight and 6 of 8
same,Hit,[1],YES
same,IC50,[1]; [2],9 µM
same,IC50,[1]; [3],78 µM
same,SR,[1],9.0
"COc1cccc2c1C(=O)c1c(O)c3c(c(O)c1C2=O)C[C@@](O)(C(=O)CO)C[C@@H]3O[C@H]1C[C@H](N)[C@H](O)[C@H](C)O1 [Doxorubicin, reference compound]",EC50,"MDA-MB-231 (breast); Homo sapiens, MDA-MB-231 monolayer, read-out: EC50 Monolayer",45.4 ± 1.9 µM
same,EC50,"MDA-MB-231 (breast); Homo sapiens, MDA-MB-231 on SISgel, read-out: EC50 SISgel",47.8 ± 4 µM
